The values that follow come from patent US20220411372A1, “SMALL-MOLECULE INHIBITORS FOR THE B-CATENIN/B-CELL LYMPHOMA 9 PROTEIN-PROTEIN INTERACTION” (H. Lee Moffitt Cancer Center and Research Institute, Inc., priority 2019, published 2022).

In one experiment the target is T1, β-catenin/BCL9 PPI (Homo sapiens, UniProt P35222).
T1 construct: Full-length β-catenin (residues 1-781) were cloned into a pET-28b vector; made in house; host or cells: E. coli BL21 DE3 (β-catenin); BCL9 peptide synthesized by InnoPep Inc
T1 sequence (P35222 1-781): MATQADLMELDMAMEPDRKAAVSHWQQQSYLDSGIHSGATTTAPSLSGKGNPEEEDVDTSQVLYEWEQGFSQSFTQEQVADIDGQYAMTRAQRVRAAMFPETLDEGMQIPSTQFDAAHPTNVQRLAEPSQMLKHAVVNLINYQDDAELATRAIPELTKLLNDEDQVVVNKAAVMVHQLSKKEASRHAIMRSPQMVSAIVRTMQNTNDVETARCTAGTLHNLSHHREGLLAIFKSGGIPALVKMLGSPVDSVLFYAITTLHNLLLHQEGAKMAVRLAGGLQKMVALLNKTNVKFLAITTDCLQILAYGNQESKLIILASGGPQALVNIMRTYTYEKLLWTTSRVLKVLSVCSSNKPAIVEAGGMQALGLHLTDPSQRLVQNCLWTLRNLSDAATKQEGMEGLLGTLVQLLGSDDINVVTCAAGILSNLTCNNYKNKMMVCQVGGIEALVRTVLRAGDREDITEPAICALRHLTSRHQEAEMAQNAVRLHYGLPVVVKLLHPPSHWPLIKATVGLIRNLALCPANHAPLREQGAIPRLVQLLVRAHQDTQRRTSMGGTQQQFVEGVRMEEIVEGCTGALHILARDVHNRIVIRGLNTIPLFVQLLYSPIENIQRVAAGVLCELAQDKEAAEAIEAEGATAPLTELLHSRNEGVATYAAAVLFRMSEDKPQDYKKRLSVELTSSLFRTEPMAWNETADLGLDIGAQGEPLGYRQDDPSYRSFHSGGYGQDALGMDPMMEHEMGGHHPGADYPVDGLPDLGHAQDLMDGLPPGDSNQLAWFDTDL
Put plainly: AlphaScreen competitive inhibition assay of the β-catenin/BCL9 PPI. It is filed as binding. As to conditions: Table 1, inhibitors 1-14; read-out: Ki. As to the method: AlphaScreen Assays of β-Catenin and BCL9 Interaction. Experiments were performed in white opaque 384-well plates from PerkinElmer (Waltham, Mass.), and the samples were read on a Synergy 2 plate reader (Biotek, Winooski, Vt.) with excitation at 680 nm and emission at 570 nm. The standard AlphaScreen protocol was used with a sensitivity setting of 200. All dilutions were made in 1× assay buffer containing 25 mM Hepes (pH 7.4), 100 mM NaCl, 0.01% Triton X-100 and 0.1% BSA to minimize nonspecific interactions.
For the β-catenin/BCL9 assay, 5 nM biotinylated BCL9 and 40 nM His6-tagged β-catenin were incubated in assay buffer at 4° C. for 30 min. For the β-catenin/E-cadherin assay, 10 nM biotinylated human E-cadherin, and 40 nM His6-tagged human β-catenin were added and incubated in assay buffer at 4° C. for 30 min. Different concentrations of the tested inhibitor were added and incubated in 20 μL assay buffer at 4° C. for another 1 h. All of the assay plates were covered and gently mixed on an orbital shaker. The donor and acceptor beads were then added to the plates to a final concentration of 10 μg/mL in […]. The mixture was incubated for 1 h at 4° C. before detection. The IC50 value was determined by nonlinear least-square analysis of GraphPad Prism 5.0. […] All of the experiments were performed in triplicate and carried out in the presence of 1% DMSO for small-molecule inhibitors. Each compound was assayed at least by two independent experiments. The results were expressed as mean±standard deviation. The inhibitor selectivity for β-catenin/BCL9 over β-catenin/E-canderin interactions was defined as the ratio of the respective Ki value of β-catenin/E-cadherin interactions over that of β-catenin/BCL9 interactions.
In general, Ki refers to a measure of affinity in units of concentration, obtained from inhibition or displacement. On to `CC(C)c1ccc(CCNC(=O)[C@H]2CCCN(c3cccc(OC(C)(C)C(=O)O)c3)C2)cc1` [Compound 14, (S)-2-(3-(3-((4-isopropylphenethyl)carbamoyl)piperidin-1-yl)phenoxy)-2-methylpropanoic acid], for which the Ki was no more than 90 µM.

The same experiment, now with this note: Table 2, inhibitors 15-26; read-out: Ki.
For the compound `CC(C)c1ccc(COC(=O)[C@@H]2CCCN(c3cccc(OC(C)(C)C(=O)N4CCNCC4)c3)C2)cc1` [Compound 15, (R)-4-(2-(3-(3-(((4-isopropylbenzyl)oxy)carbonyl)piperidin-1-yl)phenoxy)-2-methylpropanoyl)piperazin-1-ium chloride], the Ki was no more than 10 µM.
On the same count and under the same terms, under `CC(C)c1ccc(COC(=O)[C@H]2CCCN(c3cccc(OC(C)(C)C(=O)N4CCNCC4)c3)C2)cc1` [Compound 16, (S)-4-(2-(3-(3-(((4-isopropylbenzyl)oxy)carbonyl)piperidin-1-yl)phenoxy)-2-methylpropanoyl)piperazin-1-ium chloride] stands no more than 10 µM; under `CC(C)c1ccc(CNC(=O)[C@@H]2CCCN(c3cccc(OC(C)(C)C(=O)N4CCNCC4)c3)C2)cc1` [Compound 17, (R)-4-(2-(3-(3-((4-isopropylbenzyl)carbamoyl)piperidin-1-yl)phenoxy)-2-methylpropanoyl)piperazin-1-ium chloride], no more than 10 µM.
Same read-out and setting: under `CC(C)c1ccc(CNC(=O)[C@H]2CCCN(c3cccc(OC(C)(C)C(=O)N4CCNCC4)c3)C2)cc1` [Compound 18, (S)-4-(2-(3-(3-((4-isopropylbenzyl)carbamoyl)piperidin-1-yl)phenoxy)-2-methylpropanoyl)piperazin-1-ium chloride] stands no more than 30 µM; under `CC(C)c1ccc(CN(C)C(=O)[C@@H]2CCCN(c3cccc(OC(C)(C)C(=O)N4CCNCC4)c3)C2)cc1` [Compound 19, (R)-4-(2-(3-(3-((4-isopropylbenzyl)(methyl)carbamoyl)piperidin-1-yl)phenoxy)-2-methylpropanoyl)piperazin-1-ium chloride], no more than 30 µM; under `CC(C)c1ccc(CN(C)C(=O)[C@H]2CCCN(c3cccc(OC(C)(C)C(=O)N4CCNCC4)c3)C2)cc1` [Compound 20, (S)-4-(2-(3-(3-((4-isopropylbenzyl)(methyl)carbamoyl)piperidin-1-yl)phenoxy)-2-methylpropanoyl)piperazin-1-ium chloride], no more than 10 µM.
On the same count and under the same terms, to `CCN(Cc1ccc(C(C)C)cc1)C(=O)[C@@H]1CCCN(c2cccc(OC(C)(C)C(=O)N3CCNCC3)c2)C1` [Compound 21, (R)-4-(2-(3-(3-(ethyl(4-isopropylbenzyl)carbamoyl)piperidin-1-yl)phenoxy)-2-methylpropanoyl)piperazin-1-ium chloride] belongs no more than 30 µM.
Turning to `CCN(Cc1ccc(C(C)C)cc1)C(=O)[C@H]1CCCN(c2cccc(OC(C)(C)C(=O)N3CCNCC3)c2)C1` [Compound 22, (S)-4-(2-(3-(3-(ethyl(4-isopropylbenzyl)carbamoyl)piperidin-1-yl)phenoxy)-2-methylpropanoyl)piperazin-1-ium chloride], the inhibition constant (Ki) was no more than 30 µM.
Still for that read-out and setting: to `CC(C)c1ccc(CN(C(=O)[C@@H]2CCCN(c3cccc(OC(C)(C)C(=O)N4CCNCC4)c3)C2)C(C)C)cc1` [Compound 23, (R)-4-(2-(3-(3-(isopropyl(4-isopropylbenzyl)carbamoyl)piperidin-1-yl)phenoxy)-2-methylpropanoyl)piperazin-1-ium chloride] belongs no more than 10 µM.
Same read-out and setting: under `CC(C)c1ccc(CN(C(=O)[C@H]2CCCN(c3cccc(OC(C)(C)C(=O)N4CCNCC4)c3)C2)C(C)C)cc1` [Compound 24, (S)-4-(2-(3-(3-(isopropyl(4-isopropylbenzyl)carbamoyl)piperidin-1-yl)phenoxy)-2-methylpropanoyl)piperazin-1-ium chloride] stands no more than 10 µM; under `CC(C)c1ccc(CN(C(=O)[C@@H]2CCCN(c3cccc(OC(C)(C)C(=O)N4CCNCC4)c3)C2)C2CC2)cc1` [Compound 25, (R)-4-(2-(3-(3-(cyclopropyl(4-isopropylbenzyl)carbamoyl)piperidin-1-yl)phenoxy)-2-methylpropanoyl)piperazin-1-ium chloride], no more than 5 µM.
Still for that read-out and setting: to `CC(C)c1ccc(CN(C(=O)[C@H]2CCCN(c3cccc(OC(C)(C)C(=O)N4CCNCC4)c3)C2)C2CC2)cc1` [Compound 26, (S)-4-(2-(3-(3-(cyclopropyl(4-isopropylbenzyl)carbamoyl)piperidin-1-yl)phenoxy)-2-methylpropanoyl)piperazin-1-ium chloride] belongs no more than 10 µM.

The experiment is the same for the next values; noted with them: Table 3, inhibitors 27-43; read-out: Ki.
With `CC(C)(Oc1cccc(N2CCC[C@@H](C(=O)N(Cc3ccc(C(C)(C)C)cc3)C3CC3)C2)c1)C(=O)N1CCNCC1` [Compound 28, (R)-4-(2-(3-(3-((4-(tert-butyl)benzyl)(cyclopropyl)carbamoyl)piperidin-1-yl)phenoxy)-2-methylpropanoyl)piperazin-1-ium chloride], the Ki is no more than 30 µM.
For the compound `CC(C)(Oc1cccc(N2CCC[C@@H](C(=O)N(Cc3ccc(C4CCCCC4)cc3)C3CC3)C2)c1)C(=O)N1CCNCC1` [Compound 29, (R)-4-(2-(3-(3-((4-cyclohexylbenzyl)(cyclopropyl)carbamoyl)piperidin-1-yl)phenoxy)-2-methylpropanoyl)piperazin-1-ium chloride], the Ki was no more than 5 µM.
Turning to `CC(C)(Oc1cccc(N2CCC[C@@H](C(=O)N(Cc3ccc(-c4ccccc4)cc3)C3CC3)C2)c1)C(=O)N1CCNCC1` [Compound 31, (R)-4-(2-(3-(3-(([1,1′-biphenyl]-4-ylmethyl)(cyclopropyl)carbamoyl)piperidin-1-yl)phenoxy)-2-methylpropanoyl)piperazin-1-ium chloride], the Ki is less than 5 µM.
On to `CC(C)(Oc1cccc(N2CCC[C@@H](C(=O)N(Cc3ccc(-c4ccsc4)cc3)C3CC3)C2)c1)C(=O)N1CCNCC1` [Compound 32, (R)-4-(2-(3-(3-(cyclopropyl(4-(thiophen-3-yl)benzyl)carbamoyl)piperidin-1-yl)phenoxy)-2-methylpropanoyl)piperazin-1-ium chloride], for which the Ki is less than 5 µM.
Still for that read-out and setting: to `CC(C)(Oc1cccc(N2CCC[C@@H](C(=O)N(Cc3ccc(-c4ccccn4)cc3)C3CC3)C2)c1)C(=O)N1CCNCC1` [Compound 33, (R)-4-(2-(3-(3-(cyclopropyl(4-(pyridin-2-yl)benzyl)carbamoyl)piperidin-1-yl)phenoxy)-2-methylpropanoyl)piperazin-1-ium chloride] belongs less than 90 µM.
Still for that read-out and setting: to `CC(C)(Oc1cccc(N2CCC[C@@H](C(=O)N(Cc3ccc(-c4ccncc4)cc3)C3CC3)C2)c1)C(=O)N1CCNCC1` [Compound 35, (R)-4-(2-(3-(3-(cyclopropyl(4-(pyridin-4-yl)benzyl)carbamoyl)piperidin-1-yl)phenoxy)-2-methylpropanoyl)piperazin-1-ium chloride] belongs less than 90 µM; to `Cn1cc(-c2ccc(CN(C(=O)[C@@H]3CCCN(c4cccc(OC(C)(C)C(=O)N5CCNCC5)c4)C3)C3CC3)cc2)cn1` [Compound 38, (R)-4-(2-(3-(3-(cyclopropyl(4-(1-methyl-11/-pyrazol-4-yl)benzyl)carbamoyl)piperidin-1-yl)phenoxy)-2-methylpropanoyl)piperazin-1-ium chloride], no more than 90 µM.
Still for that read-out and setting: under `Cc1n[nH]cc1-c1ccc(CN(C(=O)[C@@H]2CCCN(c3cccc(OC(C)(C)C(=O)N4CCNCC4)c3)C2)C2CC2)cc1` [Compound 39, (R)-4-(2-(3-(3-(cyclopropyl(4-(3-methyl-1H-pyrazol-4-yl)benzyl)carbamoyl)piperidin-1-yl)phenoxy)-2-methylpropanoyl)piperazin-1-ium chloride] stands no more than 50 µM.
